{"source": "patent US3986930A", "about": "“Lipase activity determining method and reagent” (Dainippon Pharmaceutical Co., Ltd., priority 1974, dated 1976)", "key": {"[1]": {"biological_target": "T1, Purified hog pancreatic lipase (type IV, Sigma) (Sus scrofa, UniProt P00591)", "T1 construct": "purchased Sigma Chemical Co. type IV; host or cells: hog pancreas", "T1 sequence (P00591 1-450)": "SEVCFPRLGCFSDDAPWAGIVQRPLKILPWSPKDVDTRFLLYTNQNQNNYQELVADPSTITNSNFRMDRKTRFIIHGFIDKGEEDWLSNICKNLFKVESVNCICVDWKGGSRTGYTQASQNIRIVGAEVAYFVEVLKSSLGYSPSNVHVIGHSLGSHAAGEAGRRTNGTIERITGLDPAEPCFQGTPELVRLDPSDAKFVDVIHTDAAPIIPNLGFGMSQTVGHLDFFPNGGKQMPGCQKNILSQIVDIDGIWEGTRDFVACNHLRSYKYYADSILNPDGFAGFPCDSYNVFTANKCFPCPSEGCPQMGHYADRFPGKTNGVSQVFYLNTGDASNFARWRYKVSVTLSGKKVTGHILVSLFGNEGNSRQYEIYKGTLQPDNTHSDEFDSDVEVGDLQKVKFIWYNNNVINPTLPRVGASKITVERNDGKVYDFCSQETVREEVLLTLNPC", "assay": "Hydrolysis of S-acyl substrates by purified hog pancreatic lipase, DTNB colorimetry at 412 nm, no PMSF", "assay_type": "biochemical", "conditions": "for Relative activity (%): relative activity of BLME for lipase expressed as 100, 10 μl lipase solution", "method": "The determination of lipase activity by the present invention is carried out based on the following principle. That is, a solution of the substrate [an S-acyl compound of the formula (I), (II), (III) or (IV)] in an alcohol is added to the reaction buffer solution containing the sample with lipase and a chromogenic sulfhydryl reagent which reacts with a SH-group-containing compound [hereinafter, referred to as \"SH-compound\" ] released from the substrate by lipase. The amount of the released SH-compound or the intensity of the colored reaction mixture is proportional to the lipase activity in the sample, and therefore, the lipase activity can be determined by subjecting the resulting colored reaction mixture to colorimetric readings. As a sulfhydryl reagent, 5,5'-dithiobis(2-nitrobenzoic acid) [hereinafter, referred to as \"DTNB\" ] is used. In case of the measurement of lipase activity by using the S-acyl compound (I) (X is O) and DTNB, it is assumed that the reaction will proceed as shown in the following scheme: [drawing 6]\n(§1) To test tubes I and II are added (c) (1 ml) and a test sample (10 - 1,500 BALB unit of lipase or about 10 μl of human serum), and further to the test tube I is added (b) (20 μl; the concentration of PMSF: about 0.4 mM) and the mixture is allowed to stand at room temperature for 5 minutes to inactivate the existing serum caboxylesterase and/or arylesterase.\n(§2) To the test tube I is further added a substrate (a) (0.1 ml). The test tubes I and II are kept for 30 minutes at 38° C, and immediately to the test tube II is added the substrate (a) (0.1 ml) and to these test tubes I and II is added acetone (d) (2 ml) to stop the reaction. After mixed well, the tubes I and II were centrifuged (700 × g, for 10 minutes) to remove insoluble serum proteins and turbidity due to serum lipids and the substrate. The optical density of the supernatant of the tube I is measured at 412 nm in a cuvette of 1 cm light path (OD412 ^1 cm ) against that of the tube II.\nPurified hog pancreatic lipase (type IV, a product of Sigma Chemical Co.) is dissolved in 1 % human serum albumin solution to give a solution (10 μg/ml). The lipase activity in 10 μl of this solution (correspondingto 0.1 μ g of lipase) is determined in the same manner as described in Example 2 (substrate: BALB) in the absence of PMSF. The lipase activity measured is 800 BALB units.\nOne μmole of the released SH-group from the substrate gives 4.75 of OD412 ^1 cm under the conditions described in Example 11, and therefore 1 mg of the purified hog pancreatic lipase is calculated to hydrolyze the S-acyl group of the BALB to give a free SH-group at the rate of 1,670 μmoles/30 minutes.\nThe same lipase solution (10 μl) as prepared in Example 11 is treated in the same manner as described in Example 2 by using various S-acyl compounds as the substrate in the absence of PMSF. The relative activity of the S-acyl compounds are measured. The results are shown in Table 4, wherein the relative activity of BLME for lipase is expressed as 100."}, "lipase": {"test_system": "lipase", "assay": "Inhibition of lipase by PMSF (rate of hydrolysis of S-acyl substrate, DTNB colorimetry)", "assay_type": "biochemical", "conditions": "substrate BLME; 0 - 2.0 mM of PMSF", "method": "as §1\nas §2, with “After mixed well, the tubes I and II were centrifuged (700 × g, for 10 minutes) to remove insoluble serum proteins and turbidity due to serum lipids and the substrate.” left out, “II. […]” for “II.”\n(§3) In the same manner as described in Example 2, lipase of 1,100 BALB unit, carboxylesterase of 450 BALB unit or arylesterase of 60 BALB unit is treated (substrate: BALB), wherein the concentration of PMSF is varied, and then the rate of hydrolysis of BALB (relative activity) is measured.\nIn the same manner as described in Example 3, lipase of 1,100 MPB unit, carboxylesterase of 140 MPB unit or arylesterase of 68 MPB unit is treated (substrate: MPB), wherein the concentration of PMSF is varied, and then the rate of hydrolysis of MPB (relative activity) is measured. […]"}, "carboxylesterase": {"test_system": "carboxylesterase", "assay": "Inhibition of carboxylesterase by PMSF (rate of hydrolysis of S-acyl substrate, DTNB colorimetry)", "assay_type": "biochemical", "method": "as §1, §2\nBesides, test tube III is treated in the same manner as test tube I except that the enzyme inhibitor (b) is omitted.\nIn the same manner as described in Example 2, the determination of lipase activity is carried out except that the substrate (a' ) is used instead of (a).\nas §3\n(§4) In the same manner as described in Example 3, lipase of 1,100 MPB unit, carboxylesterase of 140 MPB unit or arylesterase of 68 MPB unit is treated (substrate: MPB), wherein the concentration of PMSF is varied, and then the rate of hydrolysis of MPB (relative activity) is measured.\nIn the same manner as described in Example 9, the determination of lipase activity is carried out by using BLME as the substrate. […]"}, "[2]": {"assay": "Storage / heat stability of reagent solutions in alcohol", "assay_type": "physicochemical", "conditions": "heated at 120° C for 30 minutes", "text": "According to the present method, the measurement of lipase activity can be easily carried out by using so small amount of sample as 1/10 to 1/100 of that in the known methods described hereinbefore and within a shorter time. Moreover, the substrate becomes micellar merely by mixing and shaking with a buffer solution without addition of an emulsifier or vigorous stirring, and further, the solution of the substrate in an alcohol is stable at room temperature for more than 6 months.\nThe enzyme inhibitor (e.g. PMSF) is preferably preserved in the form of an alcoholic solution (e.g. ethanolic solution). PMSF in an alcohol solution is stable even if it is heated at 120° C for 30 minutes, but if the solution is mixed with the substrate (I), (II), (III) or (IV) in an alcohol, PMSF undergoes chemical reaction with the substrate to lose its action as an esterase-inhibitor, and therefore, both of the solutions must be preserved separately."}, "arylesterase": {"test_system": "arylesterase", "assay": "Inhibition of arylesterase by PMSF (rate of hydrolysis of S-acyl substrate, DTNB colorimetry)", "assay_type": "biochemical", "method": "as §1\nas §2, with “After mixed well, the tubes I and II were centrifuged (700 × g, for 10 minutes) to remove insoluble serum proteins and turbidity due to serum lipids and the substrate.” left out, “II. […]” for “II.”\nas §3, §4"}}}
{"smiles": "CCCCCCCCCCCC(=O)OCCSC(=O)CCC", "note": "[BLME, S-butyroyl-O-lauroylmercaptoethanol]", "values": [{"measurement": "Relative activity (%)", "setting": "[1]; absence of PMSF", "value": 100, "unit": "%"}]}
{"smiles": "CCCC(=O)OC(CSC(=O)CCC)CSC(=O)CCC", "note": "[drawing 28]", "values": [{"measurement": "Relative activity (%)", "setting": "[1]; absence of PMSF", "value": 35, "unit": "%"}]}
{"smiles": "CCCC(=O)OCC(CSC(=O)CCC)SC(=O)CCC", "note": "(stereo not shown) [BALB]", "values": [{"measurement": "lipase activity measured, OD412 (I-II) x 1,000", "setting": "[1]; 0.1 μg hog pancreatic lipase, 30 minutes at 38° C, absence of PMSF", "value": 800, "unit": "BALB units"}, {"measurement": "activity for lipase (in words)", "setting": "[1]; absence of PMSF", "value": "extremely high activity"}, {"measurement": "rate of hydrolysis of the S-acyl group to free SH-group by 1 mg of lipase", "setting": "[1]; per 1 mg purified hog pancreatic lipase, calculated from 4.75 OD412 per μmole SH", "value": "1,670 μmoles/30 minutes"}]}
{"smiles": "CCCC(=O)OC(CSC(=O)CCC)CSC(=O)CCC", "note": "[2-butyroyloxy-1,3-bisbutyroylthiopropane]", "values": [{"measurement": "relative activity as fraction of the relative activity of BALB", "setting": "[1]; absence of PMSF", "value": "less than 1/10"}]}
{"smiles": "O=S(=O)(F)Cc1ccccc1", "note": "[PMSF, phenylmethylsulfonyl fluoride]", "values": [{"measurement": "Inhibition of the lipase activity", "setting": "lipase", "value": "negligible"}, {"measurement": "50 % inhibitory concentration for carboxylesterase as fraction of that for lipase", "setting": "carboxylesterase; substrate BALB", "value": "about 1/100"}, {"measurement": "carboxylesterase activity inhibited", "setting": "carboxylesterase; substrate BLME, 0.2 mM or more of PMSF", "value": "≥ 90", "unit": "%"}, {"measurement": "50 % inhibitory concentration for carboxylesterase as fraction of that for lipase", "setting": "carboxylesterase; substrate MPB", "value": "about 1/200"}, {"measurement": "stability of alcohol solution on heating", "setting": "[2]", "value": "stable"}, {"measurement": "50 % inhibitory concentration for arylesterase as fraction of that for lipase", "setting": "arylesterase; substrate BALB", "value": "1/300"}, {"measurement": "50 % inhibitory concentration for arylesterase as fraction of that for lipase", "setting": "arylesterase; substrate MPB", "value": "1/400"}]}
